We go through 13 compounds from ChEMBL document CHEMBL1201862, “PubChem BioAssay data set” (2004).

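Five concentrations, 48 hours, 96-well plates. At the GI50, growth is halved.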 Active and inactive are the calls of the source. Cut-off read from the data, not from the text of the source: active = GI50 up to about 1.1 µM and inactive = higher.

Holding throughout (test): NCI tumour cell line growth inhibition, 48 h
For assay [1], the system named is UO-31.
The subject of assay [2] is EKVX.
The subject of assay [3] is ACHN.
Assay [4] relates to SR.
Assay [5] concerns MDA-MB-435.
Assay [6] has as its system Hs-578T.
Assay [7] deals with A549.
Assay [8] has as its system MDA-MB-231.
Assay [9] deals with DU-145.
Assay [10] concerns K562.
For assay [11], the system named is PC-3.
The subject of assay [12] is BT-549.
Assay [13] relates to RPMI-8226.
The subject of assay [14] is SK-MEL-28.
Assay [15] concerns CAKI-1.
In assay [16] the test system is HOP-92.
Assay [17] deals with SNB-75.
Assay [18] deals with COLO 205.
In assay [19] the test system is HOP-62.

For the compound `O=C(O)c1cc(/C=C/c2cc(O)ccc2O)ccc1O`, the GI50 in assay [1], in assay [2], in assay [3], in assay [4], in [5] and in assay [6] was > 10 µM (inactive) throughout. Besides, the GI50 is > 10 µM (inactive) in assay [7]; > 10 µM (inactive) in assay [8]; > 10 µM (inactive) in assay [9]; 2.85 µM (inactive) in [10]; > 10 µM (inactive) in assay [11]; > 10 µM (inactive) in [12].
As to `COc1ccc(CCc2cc(OC)c(O)c(OC)c2)cc1`, the GI50 is 50.8 µM (inactive) in [13]; 19.6 µM (inactive) in [14]; 42 µM (inactive) in assay [15]; 42.6 µM (inactive) in assay [1]; > 100 µM (inactive) in assay [2]; 80.5 µM (inactive) in assay [3]. The GI50 in [4] was 37.3 µM (inactive); in assay [16], 66.8 µM (inactive); in assay [17], 29.4 µM (inactive); in assay [7], 47.1 µM (inactive); in assay [18] it was > 100 µM (inactive); in assay [10] it was 33 µM (inactive). Besides, the GI50 in [19] was 98.6 µM (inactive).
As to `CCCCC1CC(c2ccc(Cl)cc2)=NO1` (stereo not given), the GI50 in assay [13], in assay [14], in assay [15], in assay [1], in [2] and in [3] was > 100 µM (inactive) each time. Besides, the GI50 in [4], in [16], in assay [17], in assay [7], in assay [18] and in assay [10] was > 100 µM (inactive) in each case. Also, in assay [19], the GI50 is > 100 µM (inactive).
Take `CCC[C@H]1O[C@@H]2CC(=O)O[C@@H]2C2=C1C(=O)C=CC2=O`: the GI50 was 25.6 µM (inactive) in assay [13]; 17.2 µM (inactive) in [14]; 19.2 µM (inactive) in assay [15]; 18.5 µM (inactive) in [1]; > 44.1 µM (inactive) in assay [2]; 13.1 µM (inactive) in assay [3]. The GI50 in [4] is 16.7 µM (inactive); in [16], 2.7 µM (inactive); in [17], 17 µM (inactive); in assay [7], 32.6 µM (inactive); in assay [18], 3.38 µM (inactive); in assay [10], 5.09 µM (inactive). Moreover, the GI50 in assay [19] is > 54.1 µM (inactive).
Consider `COC(=O)C1Cc2c([nH]c3ccccc23)C(c2ccccc2O)N1Cc1ccccc1` (stereo not given), for which the GI50 is > 100 µM (inactive) in assay [13]; > 31.6 µM (inactive) in [14]; 22.2 µM (inactive) in [15]; 31 µM (inactive) in assay [1]; > 31.6 µM (inactive) in [2]; 28.4 µM (inactive) in assay [3]. Moreover, the GI50 was 28.4 µM (inactive) in assay [4]; 22.6 µM (inactive) in assay [16]; 7.05 µM (inactive) in [17]; 32 µM (inactive) in assay [7]; 41.7 µM (inactive) in assay [18]; 37.5 µM (inactive) in assay [10]. Further, in assay [19], the GI50 is 41.2 µM (inactive).
For the compound `CC(=O)C1Cn2c(nc3ccccc32)C[Se]1` (stereo not given), the GI50 in [13] is 25.3 µM (inactive); in assay [14], 2.98 µM (inactive); in assay [15], 2.19 µM (inactive); in [1], 3.1 µM (inactive); in [2], 15 µM (inactive); in assay [3], 3.39 µM (inactive). Moreover, the GI50 is 3.1 µM (inactive) in assay [4]; 2.09 µM (inactive) in assay [16]; 2.55 µM (inactive) in [17]; 19.8 µM (inactive) in [7]; 16.5 µM (inactive) in [18]; 4.23 µM (inactive) in [10]. Besides, in assay [19], the GI50 is 2.37 µM (inactive).
Turning to `Cc1sc2nc3n(c(=O)c2c1C)N=CN(c1ccc(Cl)cc1)C3`, the GI50 in [13], in assay [14], in assay [15], in [1], in [2] and in assay [3] was > 100 µM (inactive) in each case. Further, the GI50 in assay [4] is 63.4 µM (inactive); in [16] it was > 100 µM (inactive); in assay [5] it was > 100 µM (inactive); in [17], > 100 µM (inactive); in [7] it was > 100 µM (inactive); in [8], > 100 µM (inactive). Also, the GI50 is > 100 µM (inactive) in assay [18]; > 100 µM (inactive) in assay [9]; > 100 µM (inactive) in [10]; > 100 µM (inactive) in [11]; > 100 µM (inactive) in assay [12]; 99.3 µM (inactive) in [19].
With `O=C1CN2C(c3ccccc3)=NN(c3ccc([N+](=O)[O-])cc3)C2(c2ccccc2)c2cc(Cl)ccc2N1CC1CC1` (stereo not given), the GI50 in [13] was 29 µM (inactive); in [14] it was > 100 µM (inactive); in assay [15], > 100 µM (inactive); in [1], > 100 µM (inactive); in [2], > 100 µM (inactive); in assay [3], > 100 µM (inactive). Moreover, the GI50 in assay [4], in assay [16], in [5], in assay [6], in assay [17] and in assay [7] was > 100 µM (inactive) throughout. In addition, the GI50 in [8] was > 100 µM (inactive); in assay [18], > 100 µM (inactive); in [9], > 100 µM (inactive); in assay [10], > 100 µM (inactive); in [11], 7.6 µM (inactive); in [12], > 100 µM (inactive). The GI50 in assay [19] is > 100 µM (inactive).
In the case of `Nc1ccc2c(c1)N(C(=O)CCCC(=O)N1CC(CCl)c3ccc(N)cc31)CC2CCl` (stereo not given), the GI50 in assay [13] is 0.26 µM (active); in assay [14] it was 1.23 µM (inactive); in assay [15] it was 0.141 µM (active); in assay [1], 0.561 µM (active); in [2], 1.51 µM (inactive); in assay [3] it was 0.112 µM (active). The GI50 in [4] was 0.017 µM (active); in [16], 1.97 µM (inactive); in assay [5], 0.953 µM (active); in assay [6] it was 0.918 µM (active); in [17], 0.535 µM (active); in assay [7] it was 0.472 µM (active). The GI50 is 1.43 µM (inactive) in assay [8]; 0.735 µM (active) in assay [18]; 0.121 µM (active) in assay [9]; 0.873 µM (active) in [10]; 1.08 µM (active) in [11]; 0.719 µM (active) in assay [12]. The GI50 in [19] was 0.262 µM (active).
With `C/C=C1\CNC1C(=O)O` (stereo not given), the GI50 in assay [13], in assay [14], in assay [15], in assay [1], in assay [2] and in assay [3] was > 100 µM (inactive) in each case. Moreover, the GI50 in assay [16], in [5], in assay [6], in [7], in assay [18] and in [10] was > 100 µM (inactive) each time. For the same compound, the GI50 in assay [11], in assay [12] and in assay [19] was > 100 µM (inactive) each time.
For `COc1cc(C2c3cc4c(cc3OC(O)C2C)OCO4)cc(OC)c1OC` (stereo not given), the GI50 in [13] is 0.264 µM (active); in assay [14] it was 0.863 µM (active); in assay [15], 0.612 µM (active); in [1], 0.695 µM (active); in assay [2], 1.53 µM (inactive); in assay [3] it was 0.792 µM (active). For the same compound, the GI50 in assay [4] was 0.2 µM (active); in assay [16], 0.562 µM (active); in assay [5] it was 0.0377 µM (active); in [6], 0.31 µM (active); in assay [17], 0.244 µM (active); in assay [7] it was 0.381 µM (active). Besides, the GI50 in assay [8] was 0.532 µM (active); in assay [18] it was 0.315 µM (active); in assay [9], 0.414 µM (active); in assay [10], 0.142 µM (active); in assay [11], 0.228 µM (active); in assay [12], 1.14 µM (inactive). In addition, the GI50 in assay [19] was 0.306 µM (active).
Consider `O=C1Nc2c(Cl)cc(Cl)cc2/C1=N/N=C/c1ccco1`, for which the GI50 in assay [14] was 33 µM (inactive); in [15] it was 24.3 µM (inactive); in assay [1] it was 20.5 µM (inactive); in assay [2] it was 7.6 µM (inactive); in assay [3] it was 34.1 µM (inactive); in assay [4], 24.8 µM (inactive). The GI50 in [16] was 27.4 µM (inactive); in assay [5] it was 29.9 µM (inactive); in [6], 32.7 µM (inactive); in [17] it was 10.5 µM (inactive); in [7] it was 33.4 µM (inactive); in [8], 20.3 µM (inactive). The GI50 in [18] is 22.4 µM (inactive); in [10], 31.4 µM (inactive); in assay [11], 29.8 µM (inactive); in assay [12], 22.2 µM (inactive); in assay [19], 34.7 µM (inactive).
As to `COC1(c2ccc(Cl)cc2)SC=C(C)n2c1noc2=O` (stereo not given), the GI50 in assay [13], in assay [14], in assay [15], in [1], in assay [2] and in [3] was > 100 µM (inactive) in each case. The GI50 in assay [4], in assay [16], in assay [5], in assay [6], in assay [7] and in assay [18] was > 100 µM (inactive) in each case. Besides, the GI50 in [9], in assay [10], in assay [11] and in assay [12] was > 100 µM (inactive) in each case.
